The nature of this data set: Spreading test: drop on a polybutene surface in a Petri dish, compared with water. Type of data set: physicochemical. As to conditions: water containing 0.1% by weight of spreading agent; drop of 50μ on polybutene; pure water about 10 mm. The text has this: Compositions of the present invention have the advantage that they spread more efficiently and completely on polymeric conveyor surfaces than previously known conveyor lubricant compositions containing polydimethylsiloxane. […] When the lubricant is applied to a polymeric conveyor surface, the conveyor surface soon becomes very hydrophobic due to the adsorption and/or absorption of the silicone oil lubricant on the surface. The lubricant persists on the surface so that it presents a very hydrophobic surface to subsequently applied lubricant. The lubricants of the present invention readily wet the oil soaked silicone lubricant surface as evidenced by the lubricants rapidly spreading on the surface without beading. […]
A useful test to determine the spreading ratios of the lubricants of the present invention is to compare spreading on a standard polybutene surface in a Petri dish. In this test, a drop of 50μ of the composition to be measured is applied to a polybutene surface in a Petri dish and after 30 seconds the linear movement of the liquid is measured by taking the average diameter of the substantially circular liquid. Pure water has been measured to have a diameter of about 10 mm. […]
The compositions prepared above were diluted at a ratio of 1 part lubricant to 200 parts water. […] The spreading ratio of the lubricant was measured using the test as described above. […]

Consider “heptamethyl trisiloxane with a hydroxy terminated polyethyleneoxide pendant group [Silwet® L-7608]”, for which the “movement of the drop (average diameter of the liquid) after 30 seconds” value amounted to 110 mm.
